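At the GI50, growth is halved. TGI denotes the concentration required for complete inhibition of growth.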
Assays:
Assay in all cases: NCI tumour cell line growth inhibition, 384-well format
[1] = tested on: SNB-19 CNS
[2] = tested on: HOP-62 NSCLC
[3] = tested on: NCI-H460 NSCLC
[4] = tested on: MDA-MB-231 breast
[5] = tested on: OVCAR-8 ovarian
[6] = tested on: CCRF-CEM leukemia
[7] = tested on: NCI-H23 lung
[8] = tested on: UO-31 renal
[9] = tested on: SN12C renal
[10] = tested on: K-562 leukemia
[11] = tested on: OVCAR-4 ovarian
[12] = tested on: HCC-2998 colon
[13] = tested on: TK-10 renal

CCS(=O)(=O)N1CCC(C(C)n2c(C)c(C(=O)NCc3c(OC)cc(C)[nH]c3=O)c3ccccc32)CC1 (stereo unspecified)
GI50 [1]: > 100 µM | TGI [1]: > 100 µM | GI50 [2]: > 87.9 µM | TGI [2]: > 100 µM | GI50 [3]: > 100 µM | TGI [3]: > 100 µM | GI50 [4]: > 100 µM | TGI [4]: > 100 µM | GI50 [5]: > 100 µM | TGI [5]: > 100 µM | GI50 [6]: > 100 µM | TGI [6]: > 100 µM | GI50 [7]: > 100 µM | TGI [7]: > 100 µM | GI50 [8]: > 100 µM | TGI [8]: > 100 µM | GI50 [9]: > 100 µM | TGI [9]: > 100 µM | GI50 [10]: > 100 µM | TGI [10]: > 100 µM | GI50 [11]: > 100 µM | TGI [11]: > 100 µM | GI50 [12]: > 100 µM | TGI [12]: > 100 µM | GI50 [13]: > 100 µM | TGI [13]: > 100 µM
